Experimental data reported in patent US9468641B2, “Anti-inflammatory pharmaceutical composition comprising benzopyranyl tetracycles” (SEOUL NATIONAL UNIVERSITY R&DB FOUNDATION, priority 2014, dated 2016).

Experiments:
[1] = system: BV-2 cells; test: Griess assay of LPS-induced nitrite release in BV-2 cells; type: cell-based; settings: BV2 microglial cells, with or without LPS stimulation, FIG. 1
Description: (§1) Cells increase the secretion of nitrite when induced to be inflammatory, but decrease the secretion of nitrite in the presence of an anti-inflammatory agent. […] Cells were treated with the compounds in the absence or presence of 100 ng/mL LPS (lipopolysaccharide). After 24 hrs of incubation, the cell culture media were reacted with Griess reagent (0.1% naphthylethylenediamine dihydrochloride and 1% sulfanilamide in 2% phosphoric acid). Absorbance was measured at 550 nm using a microplate reader, and the level of nitrite was estimated by comparison with a sodium nitrite standard curve.

[2] = system: Il6, Il1b, Nos2, and Tnf; test: RT-PCR of pro-inflammatory mediator expression; type: cell-based; settings: FIG. 3
Description: For the analysis of gene expression, cells were incubated with ICM for 6 hrs in the presence of LPS (for control, cells were treated with DMSO in the absence of LPS). Total RNA was extracted from cells using TRIzol reagent. Reverse transcription was conducted using Superscript II (Invitrogen) and oligo (dT) primers. PCR amplification was conducted using a DNA Engine Tetrad Peltier Thermal Cycler (Bio-Rad) using specific primer sets (at an annealing temperature of 55-60° C. for 20-30 cycles). To analyze PCR products, each sample was electrophoresed on a 1% agarose gel. The Gapdh (Glyceraldehyde-3-phosphate dehydrogenase) gene was used as an internal control.

[3] = biological target: T1, purified HMGB2 protein (Homo sapiens, UniProt P26583); test: SPR (surface plasmon resonance) assay; type: binding; settings: 1, 15, 30, 50, 75, and 100 μM ICM, FIG. 13
T1 sequence (P26583 1-209): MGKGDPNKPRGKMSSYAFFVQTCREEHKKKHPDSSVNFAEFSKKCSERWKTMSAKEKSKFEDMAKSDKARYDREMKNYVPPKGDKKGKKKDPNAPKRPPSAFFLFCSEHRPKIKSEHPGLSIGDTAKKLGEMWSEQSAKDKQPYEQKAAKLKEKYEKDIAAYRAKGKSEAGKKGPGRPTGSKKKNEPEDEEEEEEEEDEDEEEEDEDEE
Description: To determine the dissociation constant of the interaction of ICM with HMGB, SPR analysis was performed using Biacore T100. A carboxyl group bound onto a CM5 chip of the biosensor was activated with EDC(1-ethyl-3-(3-dimethylaminopropyl)-carbodiimide) and NHS(N-hydroxysuccinimide) to form reactive succinimide ester. HMGB1 (10 mM Na-acetate, pH 4.0) and HMGB2 (10 mM Na-acetate, pH 4.5) proteins were immobilized via an amide bond onto the sensor chip, followed by quenching excess succinimide ester with 1 M ethanolamine-HCl (pH 8.0). PBS was used as a running buffer for the immobilization. After immobilization, various concentrations of ICM were injected (for 60 sec at a flow rate of 30 μl/min). […] For this, a buffer containing 10-mM HEPES (pH 7.4), 5% DMSO, 150 mM NaCl, 3 mM EDTA, and 0.005% P20 was injected. Binding was measured at 25° C. The measurements were analyzed using Biacore T100 Evaluation software (GE Healthcare). Finally, the curve was obtained by normalizing to the control. The dissociation constant was calculated by fitting the curve to the 1:1 binding model.

[4] = biological target: T2, HMGB2 (Mus musculus, UniProt P30681); test: Griess assay in BV-2 cells with siRNA-mediated HMGB2 knockdown; type: cell-based; settings: normalized to DMSO treatment, FIG. 16
T2 construct: endogenous in cells
T2 sequence (P30681 1-210): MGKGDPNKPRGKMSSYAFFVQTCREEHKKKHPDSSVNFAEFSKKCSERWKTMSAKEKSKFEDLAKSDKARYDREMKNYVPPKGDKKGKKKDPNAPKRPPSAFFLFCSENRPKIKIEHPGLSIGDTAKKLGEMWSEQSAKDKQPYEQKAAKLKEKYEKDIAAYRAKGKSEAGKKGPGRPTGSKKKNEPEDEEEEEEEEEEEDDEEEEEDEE
Description: as §1
The siRNA transfection of BV-2 microglial cells was performed using Lipofectamine™ 2000 (Invitrogen). Forty-eight hours after transfection, the cells were used for further experiments.

[5] = biological target: T2, HMGB2; test: Subcellular fractionation and secretion analysis; type: cell-based; settings: LPS stimulation, western blotting, FIG. 17
Description: After exposure to ICM in the presence of LPS for 18 hrs, cells were lysed in subcellular fraction buffer (250 mM sucrose, 20 mM HEPES, 10 mM KCl, 1 mM EDTA, 1 mM EGTA, 1 mM DTT, and protease inhibitor cocktail), passed through a 25-Ga needle several times, and incubated on ice for 20 min. After centrifugation at 3,000 rpm for 5 min, the pellet and the supernatant were separated. The nuclear pellet was washed and then resuspended in standard lysis buffer with 10% glycerol and 0.1% SDS. The cytosolic fraction was obtained by centrifugation of the separated supernatant at 8,000 rpm for 15 min. The conditioned medium was collected for the analysis of the extracellular level of HMGBs and concentrated with Amicon Ultra 10K filters. The samples were analyzed by electrophoresis and western blotting.

[6] = system: LPS-mediated microglial activation; test: LPS neuroinflammation model; type: in vivo, C57BL/6 mice; settings: cortex, substantia nigra, hippocampus; ICM 2 and 10 mg/kg, FIG. 19
Description: All experiments were performed on 11-week-old male C57BL/6 mice. The animals were divided into four experimental groups (group 1: control treated with vehicle; group 2: treated with ICM; group 3: treated with LPS and vehicle; and group 4: treated with LPS and ICM). ICM (2 or 10 mg per kg body weight) or vehicle (distilled water containing 5% DMSO and 40% polyethylene glycol) was administered once a day for 4 days. LPS was administered at a dose of 5 mg/kg on day 2 for a single challenge.
Mice were anesthetized with diethyl ether, transcardially perfused with cold saline, and then fixed with 4% paraformaldehyde diluted in 0.1 M PBS. Brains or lumbar spinal cords were fixed using 4% PFA for 3 days and then cryoprotected with a 30% sucrose solution for 3 days. Three animals were used per experimental group. The fixed brains and spinal cords were embedded in OCT compound for frozen sectioning and then sectioned coronally at 20 μm. To detect LPS-induced microglial activation, each section was incubated with a rabbit anti-Iba-1 antibody and FluoroMyelin. The sections were visualized directly or incubated with Cy3-conjugated anti-rabbit IgG antibody. Also, the sections were stained with hematoxylin and eosin to assess inflammatory lesions.

[7] = system: EAE model; test: Experimental auto-immune encephalitis (EAE) model; type: in vivo, C57BL/6 mice

- binding to HMGB (SPR sensorgram) [3]: binds directly to HMGB
- translocation of HMGB2 from nucleus to cytoplasm and extracellular milieu [5]: the translocation was suppressed by ICM
Compound: CC1(C)Oc2cc(O)ccc2C2C1=CCn1c(=O)n(-c3ccccc3)c(=O)n12 (centres unmarked) [ICM]
- LPS-induced nitrite release [1]: efficiently blocked LPS-induced nitrite release from BV2 microglial cells in a dose-dependent manner
- LPS-induced expression of pro-inflammatory genes [2]: suppressed the LPS-induced expression of pro-inflammatory genes in a dose-dependent manner
- anti-inflammatory effect on LPS-induced nitrite release under HMGB2 knockdown [4]: anti-inflammatory effect of ICM was decreased by HMGB2 knockdown
- LPS-mediated microglial activation (Iba-1+ cell number) [6]: effectively blocked LPS-mediated microglial activation in all the brain parts
- HMGB2 levels in cerebrospinal fluid and serum ([7]; ELISA, FIG. 24): effectively suppressed the release of HMGB2 into body fluids
- microglial activation in spinal cords (anti-Iba-1 staining) ([7]; FIG. 21): clearly suppressed by ICM treatment
- mRNA levels of proinflammatory cytokines and chemokines in microglia ([7]; RT-PCR, microglial cells from brain of EAE mice, FIG. 23): decreased in the ICM-treated group
- mean clinical score (0-5 scale) ([7]; days after MOG immunization, FIG. 20): reduced with ICM treatment
- HMGB1 or HMGB2 levels in spinal cord sections ([7]; immunofluorescence, FIG. 25): effectively reduced the EAE-induced increase of HMGB1 or HMGB2 levels
- MAP-2 levels in ventral horn and ventral column ([7]; immunofluorescence, FIG. 26): effectively recovered by ICM administration
- inflammatory lesions in spinal cords (H&E staining) ([7]; lumbar spinal cord, 15 days after EAE induction, FIG. 22): substantially attenuated by ICM treatment
- demyelination (anti-MBP staining) ([7]; spinal cord sections, FIG. 27): suppresses the demyelination in the EAE model
